Values of other authors, collected in patent US20190161549A1, “COMBINATION THERAPY WITH A MEK INHIBITOR, A PD-1 AXIS INHIBITOR, AND A VEGF INHIBITOR” (Genentech, Inc., priority 2016, published 2019).
Like-named read-outs stand apart in the source and are kept apart here.

Experiments:
cancer patients = details: 14 CRC patients
[1] = dose range 0.05 mg/kg (approximately 3.5 mg for 70 kg adult) to 80 mg
human tumor cell lines = details: through inhibition of MEK1 and MEK2
[2] = with or without high-fat meal, versus cobimetinib alone fasted
[3] = system: human tumor xenograft models
[4] = not given; remark: listed apart in the source

| Compound | response in colorectal cancer (CRC) patients (cancer patients) | dose proportionality of pharmacokinetics [1] | proliferation of a variety of human tumor cell lines (human tumor cell lines) | effect of proton pump inhibitor rabeprazole on pharmacokinetics [2] | ERK phosphorylation in xenograft tumor models [3] | Kaplan-Meier estimated overall 24-week progression-free survival (PFS) rate (Study PCD4989g, 95% CI: 12%, 53%) | anti-tumor activity (across doses from 1 to 20 mg/kg) | exposure of fixed dose 800 mg q2w versus 1200 mg q3w ([4]; 800 mg every two weeks (equivalent to 10 mg/kg q2w)) | dose proportionality of pharmacokinetics ([4]; doses ≥1 mg/kg every three weeks (q3w)) |
| --- | --- | --- | --- | --- | --- | --- | --- | --- | --- |
| O=C(c1ccc(F)c(F)c1Nc1ccc(I)cc1F)N1CC(O)([C@@H]2CCCCN2)C1 [cobimetinib, (S)[3,4-Difluoro-2-(2-fluoro-4-iodophenylamino)phenyl][3-hydroxy-3-(piperidin-2-yl]azetidin-1-yl) methanone] | all patients experienced progressive disease | linear pharmacokinetics | inhibits proliferation | minimal effect | inhibits ERK phosphorylation |  |  |  |  |
| atezolizumab: anti-PD-L1 antibody, CAS Registry Number: 1422185-06-5 |  |  |  |  |  | 33% | has been observed | equivalent exposure | linear |
